In patent US9447086B2, “6-amino acid heteroaryldihydropyrimidines for the treatment and prophylaxis of hepatitis B virus infection” (priority 2012, dated 2016):
Values after ≈ are worked out from the molar mass of the structure shown. Read-outs that look alike come from different tables or passages of the source.

Tests used:
[1] = Metabolic stability study in human microsome; format: in vitro ADME
Summary of the method: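 Human liver microsomes (0.5 mg/mL) with 1 μM compound in 100 mM phosphate pH 7.4 at 37 °C, started with 1 mM NADPH or an NADPH-regenerating system. Samples taken at 0, 3, 6, 9, 15 and 30 min, quenched in methanol. Parent remaining measured by LC-MS/MS; no-cofactor controls included.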

[2] = Cytotoxicity (CC50) in HepDE19 cells, CCK-8 cell viability; format: cell-based; settings: human, HepDE19 cells
Summary of the method: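 HBV-transfected HepG2-derived HepDE19 cells grown in DMEM-F12 with 10% FBS and G418. Viability read five days after treatment by CCK-8, 2 h at 37 °C, absorbance at 450 and 630 nm.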

[3] = system: HBV; assay: Selectivity index (CC50 value/EC50 value); format: cell-based, Hepatitis B virus
Summary of the method: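 Ratio of CC50 to EC50, measuring antiviral activity against HBV relative to cytotoxicity in vitro; higher values indicate greater separation between viral inhibition and cell death.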

[4] = system: HBV; assay: Anti-HBV activity in vitro in HepG2.2.15 cells (extracellular HBV DNA by qPCR); format: cell-based, Hepatitis B virus; settings: Hepatitis B virus
Summary of the method: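 HepG2.2.15 cells, which constitutively produce HBV, were seeded overnight and then treated for 5 days with half-log serially diluted compounds at 0.5% final DMSO. Extracellular HBV DNA in culture supernatant was extracted and quantified by qPCR.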

[5] = Lyophilisation solubility assay (Lysa); format: physicochemical; settings: phosphate buffer, pH 6.5, aqueous buffer, thermodynamic from solid
Summary of the method: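 Duplicate samples from 10 mM DMSO stocks are dried, redissolved in 0.05 M phosphate buffer pH 6.5, stirred 1 h, shaken 2 h and left overnight. Filtrate and its 1/10 dilution are quantified by direct UV or HPLC-UV, giving solubility in μg/mL.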

[6] = HepG2.2.15 cells, in-house data, read-out: EC50

SMILES | Human Hepatic Clearance [1] [mL/min/kg] | CC50 at 5 days ([2]; read-out: CC50) [nM] | Selectivity index (CC50/EC50) [3] | EC50 [4, 6] [nM] | solubility thermodynamic [5] [µg/mL] | EC50 ([4]; HepG2.2.15) [nM] | CC50 at 5 days [2] [nM]
COC(=O)C1=C(CN2CCOC[C@H]2C(=O)O)NC(c2nccs2)=N[C@H]1c1ccccc1Br [Example 71, (S)-4-[(R)-6-(2-Bromo-phenyl)-5-methoxycarbonyl-2-thiazol-2-yl-3,6-dihydro-pyrimidin-4-ylmethyl]-morpholine-3-carboxylic acid] | 2.81 | > 100000 | >20833 | 4.8 | > 642 |  | 
COC(=O)C1=C(CN2CC(F)(F)C[C@H]2C(=O)O)NC(c2nccs2)=N[C@H]1c1ccc(F)c(F)c1Cl [Example 74, (R)-6-((S)-2-Carboxy-4,4-difluoro-pyrrolidin-1-ylmethyl)-4-(2-chloro-3,4-difluoro-phenyl)-2-thiazol-2-yl-1,4-dihydro-pyrimidine-5-carboxylic acid methyl ester] | 0.51 | 72000 | 34286 | 2.1 | > 655 |  | 
COC(=O)C1=C(CN2CCOC[C@H]2C(=O)O)NC(c2nccs2)=N[C@H]1c1ccc(Cl)cc1F [Example 75, (S)-4-[(R)-6-(4-Chloro-2-fluoro-phenyl)-5-methoxycarbonyl-2-thiazol-2-yl-3,6-dihydro-pyrimidin-4-ylmethyl]-morpholine-3-carboxylic acid] | 0 | > 100000 | 5556 | 18 | > 632 |  | 
COC(=O)C1=C(CN2CCOC[C@H]2C(=O)O)NC(c2nccs2)=N[C@H]1c1ccc(Cl)c(F)c1 [Example 77, (S)-4-[(S)-6-(4-Chloro-3-fluoro-phenyl)-5-methoxycarbonyl-2-thiazol-2-yl-3,6-dihydro-pyrimidin-4-ylmethyl]-morpholine-3-carboxylic acid] | 1.43 | > 100000 | 14286 |  | > 631 | 7 | 
CCOC(=O)C1=C(CN2CCOC[C@H]2C(=O)O)NC(c2nccs2)=N[C@H]1c1ccc(Cl)c(F)c1 [Example 83, (S)-4-[(S)-6-(4-Chloro-3-fluoro-phenyl)-5-ethoxycarbonyl-2-thiazol-2-yl-3,6-dihydro-pyrimidin-4-ylmethyl]-morpholine-3-carboxylic acid] | 1.77 | 25000 | 16440 | 1.5 | > 652 |  | 
COC(=O)C1=C(CN2CC(F)(F)C[C@H]2C(=O)O)NC(c2nccs2)=N[C@H]1c1ccc(F)cc1Br [Example 84, (R)-4-(2-Bromo-4-fluoro-phenyl)-6-((S)-2-carboxy-4,4-difluoro-pyrrolidin-1-ylmethyl)-2-thiazol-2-yl-1,4-dihydro-pyrimidine-5-carboxylic acid methyl ester] | 9.3 |  | >41667 |  | > 668 | 2.4 | > 100000
COC(=O)C1=C(CN2CC(F)(F)C[C@H]2C(=O)O)NC(c2nccs2)=N[C@H]1c1ccc(Cl)cc1Cl [Example 85, (R)-6-((S)-2-Carboxy-4,4-difluoro-pyrrolidin-1-ylmethyl)-4-(2,4-dichloro-phenyl)-2-thiazol-2-yl-1,4-dihydro-pyrimidine-5-carboxylic acid methyl ester] | 6.91 | 66000 | 10694 | 6.2 | > 599 |  | 
COC(=O)C1=C(CN2CCOC[C@H]2C(=O)O)NC(c2nc(C3CC3)cs2)=N[C@H]1c1ccc(F)cc1Cl [Example 87, (3S)-4-[[(4R)-4-(2-Chloro-4-fluoro-phenyl)-2-(4-cyclopropylthiazol-2-yl)-5-methoxycarbonyl-1,4-dihydropyrimidin-6-yl]methyl]morpholine-3-carboxylic acid] | 6.86 | 100000 | >4545 | 22 | > 600 |  | 
CCOC(=O)C1=C(CN2CCOC[C@H]2C(=O)O)NC(c2nccs2)=N[C@H]1c1ccc(Br)cc1F [Example 93, (S)-4-[(R)-6-(4-Bromo-2-fluoro-phenyl)-5-ethoxycarbonyl-2-thiazol-2-yl-3,6-dihydro-pyrimidin-4-ylmethyl]-morpholine-3-carboxylic acid] | 1.24 | 30000 | 6977 | 4.3 | > 690 |  | 
COC(=O)C1=C(CN2CCOC[C@H]2C(=O)O)NC(c2nccs2)=N[C@H]1c1ccc(Br)cc1F [Example 94, (S)-4-[(R)-6-(4-Bromo-2-fluoro-phenyl)-5-methoxycarbonyl-2-thiazol-2-yl-3,6-dihydro-pyrimidin-4-ylmethyl]-morpholine-3-carboxylic acid] | 0.61 | 92000 | 4600 | 20 | > 677 |  | 
CCOC(=O)C1=C(CN2CCOC[C@H]2C(=O)O)NC(c2nccn2C)=N[C@H]1c1cccc(F)c1Cl [Example 97, (S)-4-[(R)-6-(2-Chloro-3-fluoro-phenyl)-5-ethoxycarbonyl-2-(1-methyl-1H-imidazol-2-yl)-3,6-dihydro-pyrimidin-4-ylmethyl]-morpholine-3-carboxylic acid] | 1.63 | 44000 | 8800 | 5 | > 640 |  | 
CC(C)OC(=O)C1=C(CN2CCOC[C@H]2C(=O)O)NC(c2nccs2)=N[C@H]1c1cccc(F)c1Cl [Example 101, (S)-4-[(R)-6-(2-Chloro-3-fluoro-phenyl)-5-isopropoxycarbonyl-2-thiazol-2-yl-3,6-dihydro-pyrimidin-4-ylmethyl]-morpholine-3-carboxylic acid] | 4.18 | 91000 | 6741 | 14 | > 571 |  | 
COC(=O)C1=C(CN2CC(F)(F)C[C@H]2C(=O)O)NC(c2ncoc2C)=N[C@H]1c1ccc(F)cc1Cl [Example 102, (R)-6-((5)-2-Carboxy-4,4-difluoro-pyrrolidin-1-ylmethyl)-4-(2-chloro-4-fluoro-phenyl)-2-(5-methyl-oxazol-4-yl)-1,4-dihydro-pyrimidine-5-carboxylic acid methyl ester] | 0.97 | 23000 | 2599 | 9 | > 635 |  | 
COC(=O)C1=C(CN2CCOC[C@H]2C(=O)O)NC(c2ncoc2C)=N[C@H]1c1cccc(F)c1Cl [Example 103, (S)-4-[(R)-6-(2-Chloro-3-fluoro-phenyl)-5-methoxycarbonyl-2-(5-methyl-oxazol-4-yl)-3,6-dihydro-pyrimidin-4-ylmethyl]-morpholine-3-carboxylic acid] | 2.81 | > 100000 | >6803 | 15 | > 643 |  | 
COC(=O)C1=C(CN2CCO[C@H](C)[C@H]2C(=O)O)NC(c2nccs2)=N[C@H]1c1ccc(F)cc1Br [Example 106, (2R,3S)-4-[(R)-6-(2-Bromo-4-fluoro-phenyl)-5-methoxycarbonyl-2-thiazol-2-yl-3,6-dihydro-pyrimidin-4-ylmethyl]-2-methyl-morpholine-3-carboxylic acid] | 6.32 | > 100000 | >47619 | 2.1 | > 730 |  | 
CCOC(=O)C1=C(CN2CC(F)(F)CC[C@H]2C(=O)O)NC(c2nccs2)=N[C@H]1c1ccc(F)cc1Br [Example 107, (R)-4-(2-Bromo-4-fluoro-phenyl)-6-((S)-2-carboxy-5,5-difluoro-piperidin-1-ylmethyl)-2-thiazol-2-yl-1,4-dihydro-pyrimidine-5-carboxylic acid ethyl ester] | 1.89 | 24000 | 16000 | 1.5 | 510 (≈ 868 µM) |  | 
CCOC(=O)C1=C(CN2CC(F)(F)CC[C@@H]2C(=O)O)NC(c2nccs2)=N[C@H]1c1ccc(F)cc1Br [Example 108, (R)-4-(2-Bromo-4-fluoro-phenyl)-6-((R)-2-carboxy-5,5-difluoro-piperidin-1-ylmethyl)-2-thiazol-2-yl-1,4-dihydro-pyrimidine-5-carboxylic acid ethyl ester] | 4.88 | 33000 | 1784 | 18 | 410 (≈ 698 µM) |  | 
